Results on nine compounds are retold here after ChEMBL document CHEMBL5053534, “Germacrane sesquiterpenes from leaves of Eupatorium chinense inhibit protein tyrosine phosphatase” (Bioorg Med Chem Lett, 2021).

Experiment [1] has as its target T1, Tyrosine-protein phosphatase non-receptor type 2 (Homo sapiens, UniProt P17706).
T1 sequence (P17706 whole entry): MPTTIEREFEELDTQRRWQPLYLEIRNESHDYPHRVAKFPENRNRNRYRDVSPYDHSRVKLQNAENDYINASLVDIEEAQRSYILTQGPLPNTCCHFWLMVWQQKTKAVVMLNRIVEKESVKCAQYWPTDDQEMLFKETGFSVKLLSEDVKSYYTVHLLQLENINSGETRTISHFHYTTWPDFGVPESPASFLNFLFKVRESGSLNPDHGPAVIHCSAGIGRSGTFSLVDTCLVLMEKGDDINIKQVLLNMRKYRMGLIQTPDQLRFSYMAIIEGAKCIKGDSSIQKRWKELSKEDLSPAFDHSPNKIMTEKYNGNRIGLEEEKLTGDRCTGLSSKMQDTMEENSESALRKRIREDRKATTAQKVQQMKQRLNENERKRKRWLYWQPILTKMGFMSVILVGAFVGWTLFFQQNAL
Kind of experiment: Inhibition of human recombinant TCPTP using pNPP as substrate assessed as reduction in p-nitrophenol release incubated for 30 mins by absorbance based analysis.

In experiment [2] the target is T2, Tyrosine-protein phosphatase non-receptor type 1 (Homo sapiens, UniProt P18031).
T2 sequence (P18031 whole entry): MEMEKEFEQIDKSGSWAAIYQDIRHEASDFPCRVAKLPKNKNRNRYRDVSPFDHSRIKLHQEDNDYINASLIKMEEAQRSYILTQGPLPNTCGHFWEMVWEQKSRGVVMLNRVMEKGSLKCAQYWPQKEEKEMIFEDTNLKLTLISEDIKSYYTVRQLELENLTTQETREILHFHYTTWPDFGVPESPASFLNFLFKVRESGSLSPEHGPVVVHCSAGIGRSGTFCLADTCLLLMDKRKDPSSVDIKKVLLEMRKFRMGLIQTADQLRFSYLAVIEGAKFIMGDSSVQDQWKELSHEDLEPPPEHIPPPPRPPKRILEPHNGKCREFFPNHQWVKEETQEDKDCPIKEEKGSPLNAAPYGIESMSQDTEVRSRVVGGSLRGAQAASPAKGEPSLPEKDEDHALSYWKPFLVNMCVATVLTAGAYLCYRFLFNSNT
Kind of experiment: Inhibition of human recombinant PTP1B using pNPP as substrate assessed as reduction in p-nitrophenol release incubated for 30 mins by absorbance based analysis.

The term IC50 denotes the concentration at which inhibition is half-maximal. With `C=C1C(=O)O[C@@H]2/C=C(\C)C[C@H](O)/C=C(\C)C[C@@H](OC(=O)/C(=C\C)COC(C)=O)[C@@H]12`, the IC50 in experiment [1] and in experiment [2] was > 25 µM in each case.
`C=C1C(=O)O[C@@H]2/C=C(\C)C[C@H](O)/C=C(\C)C[C@@H](OC(=O)/C(=C\C)CO)[C@@H]12`: the figures for the IC50 in experiment [1] and in experiment [2] were > 28 µM and 28 µM, respectively.
The corresponding values for `C=C1C(=O)O[C@@H]2/C=C(\C)CC/C=C(\C)C[C@@H](OC(=O)/C(=C/C)COC(C)=O)[C@@H]12` are > 25 µM and > 25 µM.
In the same order, the values of `C=C1C(=O)O[C@@H]2/C=C(\C)CC/C=C(\C)C[C@@H](OC(=O)/C(=C\C)CO)[C@@H]12` are 25 µM and 11 µM.
With `C=C1C(=O)O[C@@H]2/C=C(\C)CC/C=C(\C)C[C@@H](OC(=O)/C(=C/CO)CO)[C@@H]12`, the IC50 in experiment [1] and in experiment [2] was > 28 µM in each case.
In the case of `C=C1C(=O)O[C@@H]2/C=C(\C)CC/C=C(\C)C[C@@H](OC(=O)/C(=C\COC(C)=O)CO)[C@@H]12`, the IC50 in experiment [1] and in experiment [2] was > 29 µM throughout.
As to `C=C1C(=O)O[C@@H]2/C=C(\C)CC/C=C(\C)C[C@@H](OC(=O)/C(=C/C)CO)[C@@H]12`, the IC50 in experiment [1] and in experiment [2] was > 29 µM each time.
For `C=C1C(=O)O[C@@H]2/C=C(\C)CC/C=C(\CO)C[C@@H](OC(=O)/C(C)=C/C)[C@@H]12`, the IC50 in experiment [1] and in experiment [2] was > 25 µM in each case.
For `C=C1C(=O)O[C@@H]2/C=C(\C)[C@@H](O)C/C=C(\C)C[C@@H](OC(=O)/C(=C\C)COC(C)=O)[C@@H]12`, the half-maximal inhibitory concentration (IC50) in experiment [1] was > 25 µM; in experiment [2] it was 25 µM.
